The text below walks through data of patent US6869968B1, “2-(3H)-oxazolone derivatives and their use as COX-2 inhibitors” (Allmirall Prodesfarma S.A., priority 1996, dated 2005).

In data set [1] the test system is glandular stomach. The data set is described as follows: Ulcerogenic activity (gastric lesion index). The settings on record: oral route, fasted rats, sacrificed 6 hours after dosage. The class given is in vivo, Male Wistar rat. The protocol: Animals: Male Wistar (Interfauna, U.K., Ltd.) weighing about 120-150 g were used. They were maintained on a 12:12 hour light-dark cycle (lights on at 7:00 a.m.) at room temperature (22±1° C.). The animals were fasted for 18 h prior to the experiment with free access to drinking water.
Procedure: Experiments were performed from 9 to 17 h. The compounds were administered by-the oral route and the animals were sacrificed 6 hours after drugs dosage. The stomach of each rat was removed, opened and gently washed. The macroscopic severity of the erosions was assessed using a parametric scale (Cosen and Mazure), evaluating the number and size of the ulcers in the glandular stomach. Thus, each stomach was classified with an index lesion and compared with the gastrolesivity induced by ketorolac 100 mg/kg p.o., used as a positive standard. The treatments were randomized in each experiment.
(§1) For the in vivo assays all drugs were administered in vehicle (0.1% Tween 80+0.5% methylcellulose in distilled water) in a volume of 5 ml/kg.

Data set [2] has as its system adjuvant arthritis (Mycobacterium tuberculosis in paraffin oil, hind paw). Briefly: Anti-inflammatory activity (adjuvant arthritis), hind paw volume. It is filed as in vivo, Male Wistar rats. Conditions: paw volume on day 21. The protocol: Anti-Inflammatory Activity (Adjuvant Arthritis)
Male Wistar rats weighing 175-200 g with free access to food and water were used. On day 0, the animals received an intraplantar injection of a suspension of Mycobacterium tuberculosis in paraffin oil (0.5 mg/rat) on the left hind paw. A group of 8 nonarthritic control rats were injected with paraffin oil alone. On days 11 and 14 after induction of arthritis, the volume of the hind paw of each rat was measured using a water plehysmograph. Animals whose paw volumes increased during that time were selected. Rats were distributed into groups of 8 having equal mean paw volumes and an approximately equal standard deviation.
Test compounds were administered p.o. once daily for 7 days (days 14-20). Nonarthritic and arthritic control rats received vehicle alone for 7 days. The hind paw volumes were measured 20 h after the last dose (on day 21). The body weight was determined every second day.
The results are expressed as the percentage of inhibition of inflammation (paw volume) for each treatment group, considering both the arthritic and nonarthritic vehicle controls. The ANOVA test was used for statistical studies.
as §1

Data set [3] has as its target T1, Cyclooxygenase-1 (COX-1) (Homo sapiens, UniProt P23219).
T1 construct: Platelets were isolated from peripheral human blood obtained from healthy donors; endogenous in cells; host or cells: human platelets from peripheral blood of healthy donors
The data set is described as follows: Inhibition of cyclooxygenase-1 (COX-1) activity in human platelets (thromboxane B2 ELISA). The class given is cell-based. The settings on record: 50 μM arachidonic acid, mean of three independent experiments, read-out: COX-1 (μM), results expressed as IC50 values. As to the method:
(§2) For the whole-cell COX-1 and COX-2 assays, stock solutions (10^−3M) of the drugs were dissolved in 50% dimethylsulphoxide, and further dilutions were done with medium.
Inhibition of Cyclooxygenase-1 (COX-1) Activity in Human Platelets
The blood was anticoagulated with 2 mg/ml sodium EDTA and centrifuged at 180 g for 10 min. at room temperature to obtain platelet-rich plasma. The platelet-rich plasma was centrifuged at 2000 g for 20 min. at 4° C. to obtain a platelet pellet. Cells were washed twice with PBS without […] and resuspended to 5×10^7 cells with Hank's balanced salt solution (HBSS). Platelets (10^7) were preincubated with the drugs for 15 min. at 37° C. and incubations were continued for a further 15 min. in the presence of 50 μM arachidonic acid. The production of tromboxane B2 in response to arachidonic acid was measured in the supernatants using a solid-phase immunoassay (ELISA). The results are expressed as the mean of the IC50 values obtained from three independent experiments.
(§3) For the whole-cell COX-1 and COX-2 assays stock solutions (10^−3 M) of the drugs wer dissolved in 50% dimethylsulphoxide, and further dilutions were done with medium.
On the technique in general: ELISA stands for enzyme-linked immunosorbent assay.

For data set [4], the target named is T2, Cyclooxygenase-2 (COX-2) (Homo sapiens, UniProt P35354).
T2 construct: Quiescent HUV-EC-C cells were treated with 50 nM TPA for 6 h at 37° C. to induce the COX-2 isoenzyme; endogenous in cells; host or cells: HUV-EC-C human endothelial cell line, passage 19-27, induced with 50 nM TPA/PMA
T2 sequence (P35354 18-604): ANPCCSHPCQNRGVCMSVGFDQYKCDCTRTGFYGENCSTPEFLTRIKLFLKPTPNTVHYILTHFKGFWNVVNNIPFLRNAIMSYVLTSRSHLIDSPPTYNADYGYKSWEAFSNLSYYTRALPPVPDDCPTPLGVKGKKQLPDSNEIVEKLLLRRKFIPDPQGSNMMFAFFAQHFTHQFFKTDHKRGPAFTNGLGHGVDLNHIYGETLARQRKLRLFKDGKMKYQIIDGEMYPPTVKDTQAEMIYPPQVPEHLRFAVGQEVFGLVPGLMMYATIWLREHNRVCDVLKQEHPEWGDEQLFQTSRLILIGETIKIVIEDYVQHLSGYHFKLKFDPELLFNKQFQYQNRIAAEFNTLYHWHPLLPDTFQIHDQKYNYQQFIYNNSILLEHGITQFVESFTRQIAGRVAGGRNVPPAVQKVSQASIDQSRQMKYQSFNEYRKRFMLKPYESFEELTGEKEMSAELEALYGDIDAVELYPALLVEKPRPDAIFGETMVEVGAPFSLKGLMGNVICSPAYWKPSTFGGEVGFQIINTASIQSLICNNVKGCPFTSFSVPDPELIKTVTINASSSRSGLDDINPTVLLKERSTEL
The data set is described as follows: Inhibition of cyclooxygenase-2 (COX-2) activity in HUV-EC-C cell line (prostaglandin E2 ELISA). It is filed as cell-based. The settings on record: for IC50: PMA/TPA-induced HUV-EC-C cells, 50 μM arachidonic acid, mean of three independent experiments, read-out: COX-2 (μM), results expressed as IC50 values; for Ratio COX-1:COX-2: ratio of IC50 COX-1 (platelets) to IC50 COX-2 (HUV-EC-C). As to the method:
as §2
Inhibition of Cyclooxygenase-2 (COX-2) Activity in HUV-EC-C Cell Line
HUV-EC-C cells were grown on Ham's F12K medium containing 10% fetal bovine serum, 100 μg/ml heparin and 50 μg/ml Endothelial Cell Growth Supplement (ECGS). Experiments were performed with HUV-EC-C passage 19-27. Cells (2×10^4) were seeded onto 96-well plates and made quiescent by removing the growth factor for 48 h before the initiation of the experiments. Quiescent HUV-EC-C cells were treated with 50 nM TPA for 6 h at 37° C. to induce the COX-2 isoenzyme. The cultured medium was then changed and cells were incubated with drugs for 30 min. at 37° C. Arachidonic acid (50 μM) was then added, and the cells were incubated for a further 30 min. The production of prostaglandine E2 in response to arachidonic acid was measured in the supernatants using a solid-phase immunoassay (ELISA). The results are expressed as the mean of the IC50 values obtained from three independent experiments.
as §3

The mark [5] stands for this setting: 1 mg/kg p.o. once daily for 7 days (days 14-20).

T1 sequence (P23219 24-599): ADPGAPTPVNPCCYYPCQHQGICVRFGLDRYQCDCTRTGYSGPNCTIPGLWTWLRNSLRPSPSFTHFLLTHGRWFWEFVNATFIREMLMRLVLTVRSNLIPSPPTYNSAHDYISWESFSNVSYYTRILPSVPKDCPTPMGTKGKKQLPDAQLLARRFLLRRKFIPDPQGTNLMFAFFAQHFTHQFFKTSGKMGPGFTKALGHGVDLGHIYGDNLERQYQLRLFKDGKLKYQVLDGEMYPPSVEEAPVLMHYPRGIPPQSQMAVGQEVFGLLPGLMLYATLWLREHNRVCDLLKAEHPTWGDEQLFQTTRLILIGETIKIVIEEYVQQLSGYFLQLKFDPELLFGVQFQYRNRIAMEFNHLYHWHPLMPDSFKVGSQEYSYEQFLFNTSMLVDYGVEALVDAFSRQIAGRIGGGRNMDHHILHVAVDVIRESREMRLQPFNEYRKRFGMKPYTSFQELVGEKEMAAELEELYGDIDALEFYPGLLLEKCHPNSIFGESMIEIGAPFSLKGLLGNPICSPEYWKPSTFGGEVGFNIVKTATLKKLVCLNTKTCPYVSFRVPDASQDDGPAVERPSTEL

The term IC50 denotes the concentration that gives 50% inhibition. On to `CS(=O)(=O)c1ccc(-c2coc(=O)n2-c2ccc(F)cc2)cc1` [Compound 6, 3-(4-fluorophenyl)-4-(4-methylsulfonylphenyl)-2-(3H)-oxazolone], for which, in data set [1], the “UD50” value was greater than 100 mg/kg. For the same molecule, the “% Inhibition (dose, mg/kg)” value in data set [2] (3 mg/kg p.o. once daily for 7 days (days 14-20)) is reported as 52 (3) %. The concentration for half-maximal inhibition (IC50) in data set [3] was 127 µM; in data set [4] it was 3.2 µM. Further, in data set [4], the “Ratio COX-1:COX-2” value turned out to be 39.6.
As a reminder, the melting point is the temperature, or range, at which the solid turns liquid. Regarding `CS(=O)(=O)c1ccc(-c2coc(=O)n2-c2ccc(Br)cc2)cc1` [Compound 9, 3-(4-bromophenyl)-4-(4-methylsulfonylphenyl)-2-(3H)-oxazolone], the melting point lay within 217 to 219 °C. Also, the 50% inhibitory concentration (IC50) in data set [3] was greater than 100 µM. In data set [4], the IC50 amounted to 0.11 µM and the “Ratio COX-1:COX-2” value is given as greater than 909.
In the case of `NS(=O)(=O)c1ccc(-c2coc(=O)n2-c2ccc(F)cc2)cc1` [Compound 18, 3-(4-fluorophenyl)-4-(4-aminosulfonylphenyl)-2-(3H)-oxazolone], the “% Inhibition (dose, mg/kg)” value in data set [2] (setting [5]) is recorded as 63 (1) %. The half-inhibitory concentration (IC50) in data set [3] is 1.5 µM. In data set [4], the 50% inhibitory concentration (IC50) was determined as 0.53 µM and the “Ratio COX-1:COX-2” value was determined as 2.8.
As to `NS(=O)(=O)c1ccc(-c2coc(=O)n2-c2ccc(Cl)c(Cl)c2)cc1` [Compound 20, 3-(3,4-dichlorophenyl)-4-(4-aminosulphonylphenyl)-2-(3H)-oxazolone], the “UD50” value in data set [1] was greater than 100 mg/kg. In data set [2] (setting [5]), the “% Inhibition (dose, mg/kg)” value is reported as 67 (1) %. The half-inhibitory concentration (IC50) in data set [3] worked out at 3.5 µM. In addition, in data set [4], the IC50 is 0.06 µM and the “Ratio COX-1:COX-2” value was 58.3.
For the molecule `NS(=O)(=O)c1ccc(-c2coc(=O)n2-c2ccccc2F)cc1` [Compound 26, 3-(2-fluorophenyl)-4-(4-aminosulphonylphenyl)-2-(3H)-oxazolone], in data set [1], the “UD50” value is given as greater than 100 mg/kg. Also, in data set [2] (setting [5]), the “% Inhibition (dose, mg/kg)” value is 65 (1) %. Also, the IC50 in data set [3] came out at 22.6 µM. In data set [4], the IC50 stood at 0.0096 µM and the “Ratio COX-1:COX-2” value is given as 2354.
As to `NS(=O)(=O)c1ccc(-c2coc(=O)n2-c2ccc(F)cc2F)cc1` [Compound 27, 3-(2,4-difluorophenyl)-4-(4-aminosulphonylphenyl)-2-(3H)-oxazolone], the “UD50” value in data set [1] is given as greater than 100 mg/kg. Also, in data set [2] (setting [5]), the “% Inhibition (dose, mg/kg)” value is reported as 64 (1) %. The IC50 in data set [3] was 8.9 µM. In addition, in data set [4], the IC50 was determined as 0.1 µM and the “Ratio COX-1:COX-2” value is 89.
As to `COc1ccc2c(c1)c(CC(=O)O)c(C)n2C(=O)c1ccc(Cl)cc1` [Indomethacin, 1-(4-chlorobenzoyl)-5-methoxy-2-methylindole-3-acetic acid, reference compound], the “UD50” value in data set [1] was determined as 17 mg/kg. In data set [2] (setting [5]), the “% Inhibition (dose, mg/kg)” value is 64 (1) %.
